Data: patent US20130072527A1, “METHODS OF USING SUSTAINED RELEASE AMINOPYRIDINE COMPOSITIONS” (Acorda Therapeutics, Inc., priority 2008, published 2013)
Like-named read-outs stand apart in the source and are kept apart here.

Legend:
[1] = 14C-4-aminopyridine single oral dose in rats (HWI 6379-101); settings: for tissue-to-blood ratio: rat, oral dose; for AUC / Tmax / t1/2: rats, 1 mg/kg single oral
Method: Studies were performed in rats and dogs using ^14C-labeled 4-aminopyridine (1 mg/kg) given as a single oral gavage dose in solution.
In a single-dose study, rats were administered ^14C-labeled 4-aminopyridine (1 mg/kg) p.o. Three animals per time point were sacrificed 1, 3, 8, and 24 hours post-dose. Blood was collected and tissues were excised for determination of radioactivity.

[2] = 14C-4-aminopyridine single oral dose in dogs (HWI 6379-102); assay type: in vivo; settings: for AUC / Tmax / t1/2: dogs, 1 mg/kg single oral
Source text: In both species, 14C 4-aminopyridine was rapidly absorbed.

[3] = Raoof et al., 1997, cited from earlier work
[4] = tested on: chronically injured spinal cord; settings: (941 ng/mL); Shi et al., 1997; cited from earlier work
[5] = Oral administration of non-sustained release 4-aminopyridine in animals
[6] = tested on: patients with multiple sclerosis; assay: Phase 3 study MS-F204: leg strength (LEMMT); assay type: in vivo, human
Source text: (§1) The period of efficacy evaluation (visits 2-6) included 8 weeks of twice daily treatment. An additional week was incorporated to allow pharmacodynamic evaluation at Visit 7, which was not part of the primary endpoint. (See FIG. 1 for study design). In particular, this study is a double-blind, placebo-controlled, parallel group, 13-week study (one week post screening, two weeks of single-blind placebo run-in, eight weeks of double-blind treatment, and two weeks of follow-up) in patients with multiple sclerosis. […] One of the goals of this study is to confirm the primary outcome measure in a second prospective study, and equal randomization is the most efficient way to test this outcome. […] In order to ensure at least 184 patients complete the study, approximately 100 patients were randomized to each group.
Secondary Outcome. The prospectively defined secondary outcome was leg strength, measured by Lower Extremity Manual Muscle Test (LEMMT) in 8 muscle groups, comparing the treated Timed Walk Responders and Timed Walk Non-Responders with placebo-treated patients.
[…] (p-values compared to placebo). […] (Analyzed by t-tests of the least-squares means using the mean square error via an ANOVA model with effects for responder analysis group and center.)

[7] = Single- and repeated-dose toxicity studies; assay type: in vivo; settings: orally administered; most often
Method: Toxicology. In single- and repeated-dose toxicity studies, the dosing regimen greatly affected the rate of mortality and incidence of clinical signs in all species studied (with the possible exception of the mouse). In general, higher mortality rates and greater incidences of adverse clinical signs were noted when 4-aminopyridine was administered in a single large dose as compared to when the same total dose was given as two, three, or four equally divided sub-doses. Toxic responses to orally administered 4-aminopyridine were rapid in onset, most often occurring within the first 2 hours post-dose.
These clinical signs were not unexpected and represent exaggerated pharmacology of 4-aminopyridine.

[8] = In situ absorption study (stomach, small intestine); assay type: in vivo
Source text: Absorption. 4-Aminopyridine is rapidly absorbed following oral administration.

[9] = Single-dose pharmacokinetics in healthy volunteers; settings: administered orally
[10] = Plasma protein binding of fampridine
[11] = tested on: patients with multiple sclerosis; assay: Phase 3 study MS-F204: Timed 25 Foot Walk (Timed Walk Response); assay type: in vivo, human
[12] = Rat i.v. and p.o. pharmacokinetics 2 mg/kg (M 2001-03); settings: for Vdss: single p.o. dose 2 mg/kg; for bioavailability: rat, plasma, oral, 2 mg/kg
[13] = tested on: patients with multiple sclerosis; assay: Phase 3 study MS-F204: other measures (MSWS-12, SGI, CGI, Ashworth score); assay type: in vivo, human
Source text: as §1
Other measures. A number of other measures, not powered for statistical comparison, were included for integrated analyses across studies: MSWS-12, SGI, CGI, Ashworth score.
Spasticity may be assessed in addition to walking speed and leg strength. When assessed, spasticity is evaluated at the screening visit and each subsequent visit using the Ashworth Spasticity Score. Preferably, the evaluation is prior to the LEMMT and includes evaluation of six lower extremity muscle groups; knee flexors, knee extensors and hip adductors on both the right and left side of the body. […]

[14] = tested on: normal adult myelinated axons; settings: Shi and Blight, 1997, cited from earlier work
[15] = one hour post-dose, 1 mg/kg p.o.

In the case of ^14C-4-Aminopyridine, the “radioactive dose in the carcass” value ([1]; 3 hours post-dose, 1 mg/kg p.o.) is reported as 15.4%, the tissue-to-blood ratio ([1]; cerebellum) is reported as 1.48 and the tissue-to-blood ratio ([1]; cerebrum) is reported as 3.07. For the same compound, the “dose accounted for in total (radioactivity)” value [1, 15] was 58.3%, the “radioactivity in blood, % of dose” value [1, 15] was 0.7% and the “radioactivity in kidney, % of dose” value [1, 15] was 1.6%. For the same compound, the “radioactivity in liver, % of dose” value [1, 15] was 2.6%, the “radioactivity in the carcass” value [1, 15] was 51% and the AUC ([1]; females) was 506 ± 63.3 ng·h/mL. It also gave a Tmax ([1]; females) of 0.5 h, a t1/2 ([1]; females) of 1.4 ± 0.17 h and an AUC ([1]; males) of 498 ± 17.6 ng·h/mL. The Tmax ([1]; males) was 1.0 h, the t1/2 ([1]; males) was 1.1 ± 0.04 h and the AUC ([2]; females) was 1920 ± 150 ng·h/mL. For the same compound, the Tmax ([2]; females) was 0.8 ± 0.3 h, the t1/2 ([2]; females) was 1.8 ± 0.04 h and the AUC ([2]; males) was 2030 ± 406 ng·h/mL. For the same compound, the Tmax ([2]; males) was 1.0 ± 0 h, the t1/2 ([2]; males) was 2.1 ± 0.14 h and the “Cmax and AUC in the dog relative to the rat” value ([2]; doses equal on a mg/kg basis (1 mg/kg oral)) was “approximately four-fold higher”.

For `Nc1ccncc1` [4-aminopyridine], the “regional apparent permeability coefficient (papp×10^−6, cm/sec)” value ([3]; large intestine) is listed as 2.9 ×10^−6 cm/sec, the “regional apparent permeability coefficient (papp×10^−6, cm/sec)” value ([3]; upper small intestine) is listed as 22.7 ×10^−6 cm/sec and the most effective concentration [4] is listed as “about 10 μM”. For the same compound, the “time of peak plasma concentrations after dosing” value [5] was ≤ 1 h, the “leg strength (LEMMT) versus placebo treated or Timed Walk Responder groups” value ([6]; Fampridine-treated Timed Walk Non-Responders) was “not significantly different” and the “leg strength (LEMMT) versus placebo-treated patients” value ([6]; Timed Walk Responders, p=0.028) was “significantly improved”. For the same compound, the “onset of toxic responses post-dose” value [7] was ≤ 2 h, the half-life ([8]; small intestine) was 0.67 h and the half-life ([8]; stomach) was 1.81 h. The elimination half-life ([1]; blood) was 1.21 h, the elimination half-life ([1]; cerebellum) was 1.24 h and the elimination half-life ([1]; cerebrum) was 1.63 h. For the same compound, the “absorption from the gastrointestinal tract” value [9] was “completely absorbed”, the fraction unbound [10] was 0.97 to 0.99 and the “Timed Walk response rate” value ([11]; 10 mg b.i.d., with concomitant interferons, natalizumab, or glatiramer acetate (n=70)) was 42.9%. For the same compound, the “Timed Walk response rate” value ([11]; 10 mg b.i.d., without concomitant immunomodulators (n=49)) was 42.9%, the “improvement in walking speed from baseline” value ([11]; Timed Walk Responders, throughout the treatment period) was “approximately 25%” and the “proportion of MS patients with consistently improved walking speed (Timed Walk Response)” value ([11]; eight weeks of treatment, 10 mg b.i.d.) was 42%. It also gave a Vdss ([12]; female rats) of 947.5 mL, a bioavailability ([12]; female) of ~55% and a Vdss ([12]; male rats) of 1094.4 mL. For the same compound, the bioavailability ([12]; male) was ~66.5%, the “Vdss difference between males and females adjusted for body weight” value ([12]; rats, 2 mg/kg p.o.) was 2% and the “Vdss lower in females than in males” value ([12]; rats, 2 mg/kg p.o., not statistically significant) was 13%. For the same compound, the “peak plasma concentrations lower in females than in males” value ([12]; rats, oral administration) was 38%, the “MSWS-12 score, SGI, and CGI” value ([13]; among Timed Walk Responders but not Timed Walk Non-Responders) was “improvement” and the “Ashworth Score compared to the placebo treated group” value ([13]; significant in an unplanned analysis) was “improvement”. The “concentration below which the action potential shows little or no sensitivity” value ([14]; (9.4 μg/mL)) was “below 100 μM” and the “concentration causing gradual depolarization of the axon resting potential” value ([14]; (94.1 μg/mL)) was “above 1 mM”.
